Patent US9156840B2, “D2 antagonists, methods of synthesis and methods of use” (ALTOS THERAPEUTICS, LLC, priority 2010, dated 2015)
Where a name gives a salt, the structure may show the parent alone.

Biological target: T1, human D2 receptor (Homo sapiens, UniProt P14416)
T1 construct: expressed in transfected cells; cDNA from Origene clones TC308892 and SC123573
Assay: D2 receptor radioligand binding assay (membranes of HEK-293 cells expressing human D2 receptor)
Settings: not given
Protocol: Affinity for the dopamine D2 receptor was tested in vitro, and the following describes the construction of cell lines expressing human D2 receptor, as well as the binding assays themselves.
Establishment of Stable Cell Lines Expressing Either the Cloned Human D2S Receptor or the Cloned Human D2L Receptor.
The human D2 receptor exists in two isoforms: the short form (D2S) and the long form (D2L). The two isoforms are generated from the D2 gene by alternative splicing and the D2L isoform differs from the D2S isoform by the addition of 29 amino acids in the third intracellular loop of its protein structure.
To establish HEK-293 cell lines stably expressing either the human D2S or the human D2L, the human dopamine D2S receptor (Genebank Accession Number NM_016574) and human dopamine D2L receptor (Genebank Accession Number BC021195) were amplified by PCR from Origene cDNA clones TC308892 and SC123573 (respectively) using the following primers: 5-[…]-3 (SEQ ID NO: 1) sense and 5-[…]-3 (SEQ ID NO: 2) antisense. The resulting PCR products were respectively cloned into pENTR-D-TOPO (Invitrogen), sequenced and then transferred into the pCDNA3.2-DEST (Invitrogen) using the LR-clonasc gateway reaction (Invitrogen) and sequenced again to verify the genes sequence.
HEK293 cells were maintained in Eagles Minimum Essential Medium (MEM) supplemented with 0.292 g/L L-glutamine and 10% (v/v) fetal calf serum at 37° C. in a 5% CO2 humidified atmosphere. Cells were grown to 60-80% confluency in 10 cm dishes before transfection. Transfection of the D2S and D2L containing pcDNA3.2-DEST into HEK-293 cells were performed using Lipofectamine 2000 (Invitrogen). Transfected cells were seeded and diluted 2 days after transfection and maintained in culture medium supplemented with 500 μg/mL G418. The HEK-293 cell line expressing the huD2S (R2D2S) and the huD2L (R2D2L) were maintained in culture medium supplemented with 500 μg/mL G418.
D2 Receptor Binding Assays
HEK293 cells were in Eagles Minimum Essential Medium (MEM) supplemented with 10% FBS, 0.292 g/liter L-glutamine, 10^5 units/liter penicillin, 100 mg/liter streptomycin and […] Geneticin at 37° C. in a 5% CO2 humidified atmosphere. Cells were grown to 80-90% confluence and harvested with cell stripper (Cellgro #25-056-CI). Cells were then washed with PBS (2×). Cells were either pelleted and frozen at −80° C. or membranes were prepared immediately.
Cells from pellet were resuspended in homogenization buffer (15 mM Tris*HCl, 2 mM MgCl2*6H2O, 0.3 mM EDTA, 1 mM EGTA pH 7.4 @ 4° C.). Cells were then homogenized using a Polytron (PT 1200) homogenizer at setting 6 for 10 seconds. Crude membranes were pelleted at 39, 412 g for 15 min, at 4° C. (2×) in a Sorval RC6 plus centrifuge. Membranes were finally resuspended in resuspension buffer (50 mM Tris*HCl, 120 mM NaCl, 10 mM MgCl2*6H2O, 1 mM EDTA pH 7.4 @ 4° C.) and sonicated (Fisher Sonic Dismembrator) at setting 5 for 10 seconds.
The radioligand binding assays were conducted in microtiter plates (Costar #3961) with a final volume of 1.0 mL.
The membranes were thawed at room temperature, briefly homogenized using a sonicator, diluted in assay buffer and kept on wet ice until being added to the assay plate. Membranes were diluted to a final target tissue concentration of 10 μg protein per well. The specific binding should be greater than 80% with less than 10% total radioligand bound to minimize ligand depletion errors.
First compound of the invention (50 μL) or assay buffer (50 mM Tris*HCl, 120 mM NaCl, 5 mM MgCl2*6H2O, 1 mM EDTA, 5 mM KCl pH 7.4 @37° C. plus 0.025% BSA), buffer (700 μL) and then membrane (200 μL) were added to the deep well assay plate, which was then shaken for 10 minutes. Finally, radioligand (50 μL) was added.
The assay plates were incubated at 37° C. for 120 minutes.
The assay plate were filtered over 0.3% PEI pretreated glass fiber filtermats (GF/C) using a Packard Filtermate cell harvester. […]

T1 sequence (P14416 whole entry): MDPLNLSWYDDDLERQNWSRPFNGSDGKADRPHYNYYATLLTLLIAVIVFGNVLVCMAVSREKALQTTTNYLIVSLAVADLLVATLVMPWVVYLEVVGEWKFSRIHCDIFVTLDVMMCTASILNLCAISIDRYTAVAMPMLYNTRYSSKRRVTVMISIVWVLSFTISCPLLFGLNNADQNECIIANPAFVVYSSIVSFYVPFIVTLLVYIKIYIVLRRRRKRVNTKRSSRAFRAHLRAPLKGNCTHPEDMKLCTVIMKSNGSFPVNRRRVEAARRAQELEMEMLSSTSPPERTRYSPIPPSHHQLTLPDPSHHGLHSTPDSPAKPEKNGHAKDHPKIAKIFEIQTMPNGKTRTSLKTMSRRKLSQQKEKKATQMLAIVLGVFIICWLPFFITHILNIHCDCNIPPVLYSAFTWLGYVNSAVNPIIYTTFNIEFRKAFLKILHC

**Q.** With `O=C(O[C@H]1CN2CCC1CC2)c1cccc(CN2CN(c3ccccc3)C3(CCN(CCCn4c(=O)[nH]c5ccccc54)CC3)C2=O)c1` [Compound 26, (R)-Quinuclidin-3-yl 3-((4-oxo-8-(3-(2-oxo-2,3-dihydro-1H-benzo[d]imidazol-1-yl)propyl)-1-phenyl-1,3,8-triazaspiro[4.5]decan-3-yl)methyl)benzoate] as the molecule, how does the IC50 read?
**A.** The IC50 was under 10 nM.

Same assay, conditions: radioligand displacement, HEK293 membranes, 37° C. for 120 minutes; read-out: Affinity Score (IC50 values for D2 on a scale of 1 through 5)

**Q.** For `O=C(O)c1cccc(CN2CN(c3ccccc3)C3(CCN(CCCN4C(=O)Cc5ccccc54)CC3)C2=O)c1` [Compound 89, 3-((4-oxo-8-(3-(2-oxoindolin-1-yl)propyl)-1-phenyl-1,3,8-triazaspiro[4.5]decan-3-yl)methyl)benzoic acid, hydrochloride], which IC50 is on record?
**A.** Its IC50 is under 10 nM.

**Q.** With `CS(=O)(=O)Nc1cccc(CN2CN(c3ccccc3)C3(CCN(CCCN4C(=O)Cc5ccccc54)CC3)C2=O)c1` [Compound 213, N-(3-((4-Cho-8-(3-(2-oxoindolin-1-yl)propyl)-1-phenyl-1,3,8-triazaspiro[4.5]decan-3-yl)methyl)phenyl)methanesulfonamide] as the molecule, how does the IC50 read?
**A.** Its IC50 is under 10 nM.

**Q.** Which IC50 does the source give for `O=C(O)c1cccc(CN2CN(c3ccccc3)C3(CCN(CCCN4C(=O)C5(CC5)c5ccccc54)CC3)C2=O)c1` [Compound 130, 3-((4-oxo-8-(3-(2′-oxospiro[cyclopropane-1,3′-indoline]-1′-yl)propyl)-1-phenyl-1,3,8-triazaspiro[4.5]decan-3-yl)methyl)benzoic acid, hydrochloride salt] here?
**A.** Its IC50 is under 10 nM.

**Q.** How did the IC50 turn out when `O=C(O)c1ccccc1CN1CN(c2ccc(F)cc2)C2(CCN(CCCn3c(=O)n(C4CC4)c4ccccc43)CC2)C1=O` [Compound 159, 2-((8-(3-(3-cyclopropyl-2-oxo-2,3-dihydro-1H-benzo[d]imidazol-1-yl)propyl)-1-(4-fluorophenyl)-4-oxo-1,3,8-triazaspiro[4.5]decan-3-yl)methyl)benzoic acid] was run?
**A.** Its IC50 is under 10 nM.

**Q.** `O=C(O)c1cccc(CN2CN(c3ccccc3)C3(CCN(CC4COc5ccccc5O4)CC3)C2=O)c1` (stereo not drawn) [Compound 76, 3-((8-((2,3-Dihydrobenzo[b][1,4]dioxin-2-yl)methyl)-4-oxo-1-phenyl-1,3,8-triazaspiro[4.5]decan-3-yl)methyl)benzoic acid] was tested. Which IC50 did it give?
**A.** The IC50 was under 10 nM.

**Q.** With `O=C(O)CC(c1ccccc1)N1CN(c2ccccc2)C2(CCN(CCCn3c(=O)[nH]c4ccccc43)CC2)C1=O` (stereo not drawn) [Compound 70, 3-(4-Oxo-8-(3-(2-oxo-2,3-dihydro-1H-benzo[d]imidazol-1-yl)propyl)-1-phenyl-1,3,8-triazaspiro[4.5]decan-3-yl)-3-phenylpropanoic acid] as the molecule, how does the IC50 read?
**A.** The IC50 was under 10 nM.

**Q.** How did the IC50 turn out when `O=C(O)c1cccc(CN2CN(c3ccc(F)cc3)C3(CCN(CCCN4C(=O)Cc5ccccc54)CC3)C2=O)c1` [Compound 145, 3-((1-(4-Fluorophenyl)-4-oxo-8-(3-(2-oxoindolin-1-yl)propyl)-1,3,8-triazaspiro[4.5]decan-3-yl)methyl)benzoic acid] was run?
**A.** Its IC50 is under 10 nM.

**Q.** How did the IC50 turn out when `CS(=O)(=O)Nc1ccc(CN2CN(c3ccccc3)C3(CCN(CCCC(=O)c4ccccc4)CC3)C2=O)cc1` [Compound 186, N-(4-((4-oxo-8-(4-oxo-4-phenylbutyl)-1-phenyl-1,3,8-triazaspiro[4.5]decan-3-yl)methyl)phenyl)methanesulfonamide] was run?
**A.** Its IC50 is under 10 nM.

**Q.** `O=C(O)c1cccc(CN2CN(c3ccc(F)cc3)C3(CCN(CCCn4c(=O)n(C5CC5)c5ccccc54)CC3)C2=O)c1` [Compound 156, 3-((8-(3-(3-cyclopropyl-2-oxo-2,3-dihydro-1H-benzo[d]imidazol-1-yl)propyl)-1-(4-fluorophenyl)-4-oxo-1,3,8-triazaspiro[4.5]decan-3-yl)methyl)benzoic acid] was tested. Which IC50 did it give?
**A.** Its IC50 is under 10 nM.

**Q.** With `O=C(CCCN1CCC2(CC1)C(=O)N([C@H](C(=O)O)c1ccccc1)CN2c1ccccc1)c1ccccc1` [Compound 168, (S)-2-(4-oxo-8-(4-oxo-4-phenylbutyl)-1-phenyl-1,3,8-triazaspiro[4.5]decan-3-yl)-2-phenylacetic acid] as the molecule, how does the IC50 read?
**A.** Its IC50 is under 10 nM.

**Q.** `CN1CCN(C(=O)COC(=O)c2cccc(CN3CN(c4ccccc4)C4(CCN(CCCn5c(=O)[nH]c6ccccc65)CC4)C3=O)c2)CC1` [Compound 35, 2-(4-Methylpiperazin-1-yl)-2-oxoethyl 3-((4-oxo-8-(3-(2-oxo-2,3-dihydro-1H-benzo[d]imidazol-1-yl)propyl)-1-phenyl-1,3,8-triazaspiro[4.5]decan-3-yl)methyl)benzoate] was tested. Which IC50 did it give?
**A.** Its IC50 is under 10 nM.

**Q.** For `O=C(O)[C@H](c1ccccc1)N1CN(c2ccccc2)C2(CCN(CCCN3C(=O)Cc4ccccc43)CC2)C1=O` [Compound 170, (S)-2-(4-oxo-8-(3-(2-Oxoindolin-1-yl)propyl)-1-phenyl-1,3,8-triazaspiro[4.5]decan-3-yl)-2-phenylacetic acid], which IC50 is on record?
**A.** The IC50 was under 10 nM.

**Q.** How did the IC50 turn out when `O=C(O)c1ccccc1CN1CN(c2ccccc2)C2(CCN(CCCN3C(=O)Cc4ccccc43)CC2)C1=O` [Compound 148, 2-((4-Oxo-8-(3-(2-oxoindolin-1-yl)propyl)-1-phenyl-1,3,8-triazaspiro[4.5]decan-3-yl)methyl)benzoic acid] was run?
**A.** Its IC50 is under 10 nM.

**Q.** `O=C(O)c1cccc(CN2CN(C3CCCCC3)C3(CCN(CCCn4c(=O)[nH]c5ccccc54)CC3)C2=O)c1` [Compound 72, 3-((1-cyclohexyl-4-oxo-8-(3-(2-oxo-2,3-dihydro-1H-benzo[d]imidazol-1-yl)propyl)-1,3,8-triazaspiro[4.5]decan-3-yl)methyl)benzoic acid, formate] was tested. Which IC50 did it give?
**A.** The IC50 was under 10 nM.

**Q.** `O=C(O)c1cccc(CN2CN(c3ccccc3)C3(CCN(CCCC(O)c4ccccc4)CC3)C2=O)c1` (stereo not drawn) [Compound 173, 3-((8-(4-hydroxy-4-phenylbutyl)-4-oxo-1-phenyl-1,3,8-triazaspiro[4.5]decan-3-yl)methyl)benzoic acid] was tested. Which IC50 did it give?
**A.** Its IC50 is under 10 nM.

**Q.** `O=C(O)c1ccc(CN2CN(c3ccccc3)C3(CCN(CCCn4c(=O)[nH]c5ccccc54)CC3)C2=O)cc1` [Compound 17, 4-((4-Oxo-8-(3-(2-oxo-2,3-dihydro-1H-benzo[d]imidazol-1-yl)propyl)-1-phenyl-1,3,8-triazaspiro[4.5]decan-3-yl)methyl)benzoic acid] was tested. Which IC50 did it give?
**A.** Its IC50 is under 10 nM.

**Q.** With `O=C(O)[C@H](c1ccccc1)N1CN(c2ccccc2)C2(CCN(CCCn3c(=O)[nH]c4ccccc43)CC2)C1=O` [Compound 40, (S)-2-(4-oxo-8-(3-(2-oxo-2,3-dihydro-1H-benzo[d]imidazol-1-yl)propyl)-1-phenyl-1,3,8-triazaspiro[4.5]decan-3-yl)-2-phenylacetic acid] as the molecule, how does the IC50 read?
**A.** Its IC50 is under 10 nM.

**Q.** `O=C(O)c1ccccc1CN1CN(c2ccccc2)C2(CCN(CCCN3C(=O)C4(CC4)c4ccccc43)CC2)C1=O` [Compound 149, 2-((4-Cho-8-(3-(2′-oxospiro[cyclopropane-1,3′-indoline]-1′-yl)propyl)-1-phenyl-1,3,8-triazaspiro[4.5]decan-3-yl)methyl)benzoic acid] was tested. Which IC50 did it give?
**A.** Its IC50 is under 10 nM.

**Q.** With `CC1(F)C(=O)N(CCCN2CCC3(CC2)C(=O)N(Cc2ccccc2C(=O)O)CN3c2ccc(F)cc2)c2ccccc21` (stereo not drawn) [Compound 163] as the molecule, how does the IC50 read?
**A.** The IC50 was under 10 nM.

**Q.** With `O=C(O)c1cccc(CN2CN(c3ccccc3)C3(CCN(CCCn4c(=O)sc5ccccc54)CC3)C2=O)c1` [Compound 52, 3-((4-Oxo-8-(3-(2-oxobenzo[d]thiazol-3(2H)-yl)propyl)-1-phenyl-1,3,8-triazaspiro[4.5]decan-3-yl)methyl)benzoic acid] as the molecule, how does the IC50 read?
**A.** The IC50 was under 10 nM.
